`COc1cccc(Oc2c(NS(=O)(=O)c3ccc(C(C)(C)C)cc3)ncnc2SCCO)c1` showed a melting point of 150 °C. For `C=CCN1C2CCC1C1CCC2N1C(c1ccc(C(=O)N(CC)CC)cc1)c1cccc(OC)c1` (configuration not stated), the melting point was 99 to 101 °C. Work on `CCc1cc(O)c(C(C)=O)c(O)c1` yielded a melting point of 121 to 123 °C. `O=C(CNC(=O)c1ccc(F)c([N+](=O)[O-])c1)OCc1ccccc1` gave a melting point of 84 to 86 °C. Compound `COc1cc2cc(CO)c(CO)c(-c3ccnc(N4CCC(O)c5ccccc54)c3)c2cc1OC` (configuration not stated) has a melting point of 90 to 94 °C. For `CSc1nsc(NC(=O)Oc2ccccc2)c1C#N`, the melting point was 244 to 245 °C. Compound `CCCNC(=O)CCCCCn1c(CCC)nc2c(N)nc3ccccc3c21` has a melting point of 139 to 141 °C. In the case of `CSc1nc(C)c(CCO)c(=O)n1C`, the melting point is reported as 117 to 118 °C. `ON=Cc1c(C(F)(F)F)ccc(F)c1F` showed a melting point of 111 to 112 °C. Work on `CC[C@@]12C[C@H](O)[C@](O)(c3c(F)cccc3F)C[C@H]1CCc1cc(O)ccc12` yielded a melting point of 198 to 200 °C. Compound `CCOC(=O)CN1CC(=O)N(C)c2ccc(NC(=O)NCc3ccccc3)cc2C1=O` has a melting point of 151 °C. With `NS(=O)(=O)c1cc(N(CCCl)CCCl)c([N+](=O)[O-])cc1[N+](=O)[O-]` the melting point was 153 to 154 °C. With `COC1=CC(=O)c2c(c(CO)cn2C)C1=O` the melting point was 182 to 184 °C. `Cc1cc2c(cc1-c1ccc(F)cc1)NC(=O)CC(c1cccc(-n3ccnc3)c1)=N2` gave a melting point of 196 °C. `CCCCNC(=O)c1cccc(-c2ccnc3c(C(=O)c4cccs4)cnn23)c1` gave a melting point of 172 to 174 °C. Work on `CCN(CC)C(=O)n1ccc(Sc2c(C)cccc2Cl)n1` yielded a melting point of 57 to 58 °C. In the case of `CNc1ccc2n[nH]c(=O)n2n1`, the melting point is reported as > 348 °C. `CCOCCOc1ccc(CCNC(=O)c2ccccc2CC(=O)OCC)cc1` gave a melting point of 108 °C. `COC(=O)c1ccc(C(=O)c2cccnc2)cc1` gave a melting point of 144 to 146 °C. For `COc1cc(C(=O)Nc2c(Cl)cncc2Cl)cc2c1oc1ccccc12`, the melting point was 165 to 166 °C. `COC(=O)CC1Sc2sc(S(N)(=O)=O)cc2NC1=O` (configuration not stated) showed a melting point of 195 to 197 °C. `CC(C(N)=NO)N(CCN(C(C)C(N)=NO)C(C)C(N)=NO)C(C)C(N)=NO` (configuration not stated) gave a melting point of 191 to 192 °C. `CC(C)(CO)c1cc(Cl)nnc1Cl` showed a melting point of 133 to 136 °C. In the case of `O=C(/C=C/C(=O)c1ccc(Cl)cc1)c1ccc(Cl)cc1`, the melting point is reported as 174 to 176 °C. With `Cc1cc(-c2cccc(NC(=O)N[C@@H]3c4cc(C#N)ccc4OC(C)(C)[C@H]3O)c2)on1` the melting point was 140 to 148 °C. `Clc1nnc(Cl)c2cc3ccccc3cc12` gave a melting point of 224 to 228 °C. For `CCOC(=O)CC(=O)c1cc(I)ccc1F`, the melting point was 54 to 56 °C. With `CCCCc1nc(=O)n2ncc(Br)c2[nH]1` the melting point was 188 °C. For `CCCn1c(=O)c2[nH]c(-c3cc(C)n(CC(=O)Nc4ccc(Cl)c(Cl)c4)n3)nc2n(CCC)c1=O`, the melting point was 298 °C. Compound `COc1ccc(-c2ccc3cc(C(=O)O)ccc3c2)cc1C12CC3CC(C)(CC(C)(C3)C1)C2` has a melting point of 258 to 263 °C. Work on `O=C(O)Cc1ccc(OCCCCl)cc1` yielded a melting point of 89 to 91 °C. For `CC(C)OC(=O)c1cc(-n2c(=O)[nH]c3c(c2=O)CCC3)c(F)cc1Br`, the melting point was 214 to 216 °C. In the case of `CCOC(=O)c1cc2c(C)cccc2n1CCNS(=O)(=O)c1ccc(C)cc1`, the melting point is reported as 92 to 93 °C. With `O=C(Cl)c1c(Cl)c(Cl)c(C(F)(F)F)c(Cl)c1Cl` the melting point was 72 to 76 °C. In the case of `CC(C)Oc1ccc(OC(C)C)c(OCCN2C(=O)c3ccccc3C2=O)c1`, the melting point is reported as 66 °C. Work on `CS(=O)(=O)c1ccc(-c2nc(C(F)(F)F)nc(N=[N+]=[N-])c2-c2ccc(F)cc2)cc1` yielded a melting point of 285 to 288 °C. With `CCC(CC)N1C(=O)CCc2c(C)nc(Nc3ccc(C(C)C)cc3Br)nc21` the melting point was 124 to 126 °C. `CCOC(=S)c1cc(C)c(Br)cc1N` showed a melting point of 48 to 50 °C. With `COC(=O)CCC(=O)c1ccccc1OCC(O)CNC(C)(C)C` (configuration not stated) the melting point was 80 to 81.5 °C. In the case of `O=C1NCN(c2ccc(F)cc2)C12CCN(CCCN(c1ccc(F)cc1)c1ccc(F)cc1)CC2`, the melting point is reported as 162 to 163 °C. With `Cc1ccc(NC(=O)C(F)(F)F)cc1C(F)(F)F` the melting point was 72 to 74 °C. Compound `O=C(Nc1ccccc1S(=O)(=O)c1ccccc1)N[C@@H](Cc1ccc(NC(=O)c2c(Cl)cncc2Cl)cc1)C(=O)O` has a melting point of 214 °C. Compound `O=C(CC(O)(c1cc(Cl)cc(Cl)c1)C(F)(F)F)c1ccc(-n2cncn2)nc1` (configuration not stated) has a melting point of 135 to 136 °C. Compound `CC(C)(C)OC(=O)N[C@@H]1CCC(=O)OC1=O` has a melting point of 117 to 119 °C. With `CCCc1cc2cc(OCC(=O)OCC)c(Cl)c(Cl)c2s1` the melting point was 62 to 63 °C. For `O=S(=O)(c1ccccc1)c1ccc(Oc2ccc(Cl)c(Cl)c2)nc1`, the melting point was 113 to 114 °C. With `O=CC1(c2ccc(Cl)cc2)CC1` the melting point was 38 to 41 °C. `Cc1cccc(N2C(=O)CC(Cl)C2=O)c1` (configuration not stated) showed a melting point of 137 to 138 °C. Compound `Oc1ccc(SCc2cc(O)c(O)c(O)c2)cc1` has a melting point of 158 °C. Compound `O=C(O)CCC(=O)c1ccc(-n2cncn2)cc1` has a melting point of 234 to 235 °C. Work on `NC(=O)C1CCc2cc(C(=O)c3ccccc3)c(O)cc21` (configuration not stated) yielded a melting point of 205 to 207 °C. `CC1COCc2nc3c(N)nc4cc(CCC(=O)N5CCOCC5)ccc4c3n21` (configuration not stated) showed a melting point of 245 to 247 °C. Work on `CC(C)(NC(=O)C(CS)NC(=O)c1ccccc1)c1ccccc1` (configuration not stated) yielded a melting point of 169 to 173 °C. Compound `O=C(Nc1ccccc1)N(Cc1ccc(Cl)cc1)C1CC2CCC1C2` (configuration not stated) has a melting point of 111 to 113 °C. With `Cc1nc2n(c(=O)c1CCN1CCC(C(O)c3ccc(F)cc3)CC1)CCS2` (configuration not stated) the melting point was 204 °C. Compound `CC(C)CCCC(C)C1CCC2C3CCC4CC(NC(=O)C(COCc5ccccc5)NC(=O)OC(C)(C)C)CCC4(C)C3CCC12C` (configuration not stated) has a melting point of 55 to 67 °C. In the case of `CC(C)(C)OC(=O)[C@H]1C[C@@H](C(=O)OCc2ccccc2)[C@@H](c2ccccc2)N1C(=O)CNC(=O)Nc1cccc(C(=O)OCc2ccccc2)c1` (racemic), the melting point is reported as 110 °C. With `Nc1cc(-c2ccco2)ccc1Nc1cccc(-n2ccnc2)c1` the melting point was 191 to 194 °C. With `Ic1cnc2c(c1)N(Cc1ccccc1)CCN2` the melting point was 147 to 148 °C. For `COC(=O)C1(C(N)=O)OC1c1ccccc1` (configuration not stated), the melting point was 175 to 177 °C. Compound `COc1ccc(Cl)cc1C(=O)NCCC1CCN(S(=O)(=O)NC(=O)NC2CC2)CC1` has a melting point of 138 to 139 °C. With `CNc1cc(CC(C)C)ccc1-c1ccccc1S(=O)(=O)Nc1onc(C)c1C` the melting point was 125 to 128 °C. In the case of `NCCNc1ccc([N+](=O)[O-])cc1Cl`, the melting point is reported as 116 °C. `CCCc1c(OCCCOc2cc([N+](=O)[O-])c(Cl)cc2C)ccc(C(C)=O)c1O` showed a melting point of 113 to 115 °C. With `CC(C)Oc1cc(-n2nc(C(F)(F)F)n(C)c2=O)c(Cl)cc1Cl` the melting point was 96 to 98 °C. With `O=C1Cc2cc(Cl)c(N3CCCCC3)cc2O1` the melting point was 129 to 131 °C. `CC(=O)Nc1cccc(Nc2ncc3ccc(-c4cccn4CCC#N)n3n2)c1` gave a melting point of 131 to 139 °C. `CCN(CC)CCCNC(=O)Cn1cc(-c2ccccc2)cn1` gave a melting point of 55 to 57 °C. `O=C(CNc1ccc2[nH]c(=O)oc2c1)N1CCC(Oc2ccc(Cl)cc2)CC1` gave a melting point of 180 to 183 °C. In the case of `O=Cc1c(-c2ccccc2)nn2ccccc12`, the melting point is reported as 221 to 222 °C. Compound `Cc1nc2ccc(NC(=O)CC34CC5CC(CC(C5)C3)C4)cc2s1` has a melting point of 172 °C. `CCOCc1nc2c(N)nc3ccccc3c2n1CCCC(=O)N(C)OC` gave a melting point of 163 to 165 °C. Work on `CCc1ccc2nc(N)nc(Nc3ccccc3C)c2c1` yielded a melting point of 263 to 265 °C. In the case of `Cc1cn(C(C)(C)C(=O)N(C)C)nc1-c1ccccc1C#N`, the melting point is reported as 124 to 126 °C. In the case of `ON=C1c2sccc2-n2cccc21`, the melting point is reported as 172 °C. In the case of `O=C(NCCCCO)c1ccc2c(c1)OCO2`, the melting point is reported as 95 to 98 °C. `c1ccc(CNc2nnc(Cc3ccncc3)c3ccccc23)cc1` showed a melting point of 137 to 138 °C. In the case of `O=C(c1ccccc1)c1ccc2nc(-c3c[nH]c(C(=O)N4CCCC4)c3)[nH]c2c1`, the melting point is reported as 160 to 162 °C. For `CNC(=O)NS(=O)(=O)c1ccccc1OC(Cl)=CCl`, the melting point was 225 to 226 °C. Work on `Cc1c(CC(c2ccccc2)c2ccccc2)ncn1C(c1ccccc1)(c1ccccc1)c1ccccc1` yielded a melting point of 205 to 206 °C. Compound `CC(CCCI)C(=O)Nc1nnc(C(C)(C)C)s1` (configuration not stated) has a melting point of 102 °C. In the case of `COc1cc2ccc(-c3cc(OCc4ccccc4)c(OC)cc3[N+](=O)[O-])cc2cc1OC`, the melting point is reported as 151 to 153 °C. In the case of `CN1CCCC[C@H]1C[C@H](O)c1ccc(Br)cc1`, the melting point is reported as 102 to 104 °C. `CCOC(=O)c1cnoc1-c1ccc(C(F)(F)F)cc1` gave a melting point of 42 to 44 °C. Work on `CC(Nc1ccc(F)c(F)c1)C(=O)O` (configuration not stated) yielded a melting point of 163 °C. In the case of `COC(=O)c1ccccc1S(=O)(=O)NC(=O)Nc1nc(C)cc(OC)n1`, the melting point is reported as 173 to 179 °C. In the case of `CSC(=O)c1cccc2c1[nH]c1ccccc12`, the melting point is reported as 122 to 123 °C. Compound `CCCCc1nc2cccc(C#N)c2n1Cc1ccccc1Cl` has a melting point of 124 to 127 °C. In the case of `Fc1cccc(Cl)c1-c1cc(Cl)n(-c2ccc(COc3ncc(C(F)(F)F)cc3Cl)cc2)n1`, the melting point is reported as 120 to 121 °C. `CN1C[C@@H](C(=O)OC(C)(C)C)N(C(=O)OCc2ccccc2)C1=O` gave a melting point of 102 to 103 °C. Work on `CCNC(=O)NC1(c2ccc(C(C)C)cc2OC)C(=O)c2ccccc2C1=O` yielded a melting point of 267 to 269 °C. Work on `Oc1ncnc2c1nc(CC1CCN(CC3COc4ccccc4O3)CC1)n2Cc1ccc(F)cc1` (configuration not stated) yielded a melting point of 201 °C. With `Nc1ccccc1Oc1cc(-c2ccc(C(F)(F)F)cc2)ncn1` the melting point was 188 °C. `O=C(O)c1cn2c3c(cc(F)cc3c1=O)C1CCCCC12` (configuration not stated) showed a melting point of 281 to 282 °C. `Cc1ncsc1NC(=O)Nc1ccc(-n2nc(C3CC3)cc2C(F)(F)F)nc1` gave a melting point of 244 to 247 °C. Work on `O=S(=O)(Nc1ccc(Cl)cc1Sc1ccc(Cl)cc1)C(F)(F)F` yielded a melting point of 83 to 84 °C. Work on `CCCCc1nc2c(N)nc3ccccc3c2n1CC(C)(C)C(N)=O` yielded a melting point of 231 to 233 °C. For `CNC(=O)c1c[nH]c2ccc(C(=O)c3c(C)c(OC)c4ccccn34)cc2c1=O`, the melting point was 324 °C. `COC(=O)C(CC(C)C)NC(=O)C(C)NC(=O)OCc1ccccc1` (configuration not stated) showed a melting point of 65 to 68 °C. For `O=C(O)CCc1nn(-c2ccc(F)cc2)cc1-c1ccc(Cl)cc1`, the melting point was 131 °C. In the case of `CCN(CC)c1ccc(Nc2ccnc(Nc3cc(OC)c(OC)c(OC)c3)n2)cc1`, the melting point is reported as 87 °C. Compound `O=S1CCN(c2nc(Cl)nc3c(Cl)ncnc23)CC1` has a melting point of 195 to 198 °C.

Source: a melting point compilation (Tetko et al.; mined from patent text by program, amines drawn as free bases though some values may be those of a salt)
